From patent US20190374563A1, “TREATMENT OF KLEBSIELLA PNEUMONIAE INFECTIONS WITH ANTIBACTERIAL AMINOGLYCOSIDE COMPOUNDS” (Achaogen, Inc., priority 2009, published 2019)
In brackets after ≈: the same amount, converted by molar mass. Like-named read-outs stand apart in the source and are kept apart here.

What was measured:
[1] = tested on: P. aeruginosa ATCC 27853 (APAE001); experiment: MIC assay, CLSI broth microdilution; format: cell-based; conditions: Pseudomonas aeruginosa
Description: (§1) Minimum inhibitory concentrations (MIC) were determined by reference Clinical and Laboratory Standards Institute (CLSI) broth microdilution methods per M7-A7 [2006]. Quality control ranges utilizing E. coli ATCC 25922, P. aeruginosa ATCC 27853 and S. aureus ATCC 29213, and interpretive criteria for comparator agents were as published in CLSI M100-S17 [2007]. Briefly, serial two-fold dilutions of the test compounds were prepared at 2× concentration in Mueller Hinton Broth. The compound dilutions were mixed in 96-well assay plates in a 1:1 ratio with bacterial inoculum. The inoculum was prepared by suspension of a colony from an agar plate that was prepared the previous day. Bacteria were suspended in sterile saline and added to each assay plate to obtain a final concentration of 5×10^5 CFU/mL. The plates were incubated at 35° C. for 20 hours in ambient air.

[2] = tested on: E. coli ATCC 25922 (AECO001); experiment: MIC assay, CLSI broth microdilution; format: cell-based; set-up: MIC AECO001: unit not given here; conditions: for MIC: Escherichia coli
Description: as §1

[3] = ATCC27853, read-out: MIC APAE001
[4] = ATCC25922, read-out: MIC AECO001
[5] = Table 1, APAE001 is ATCC27853, read-out: MIC APAE001
[6] = Table 1, AECO001 is ATCC25922, read-out: MIC AECO001

Row | MIC AECO001 ([2]; Table 3, E. coli ATCC25922) | Compound | MIC [1, 3] | MIC [2, 4] | MIC [1, 5] | MIC [2, 6]
1 |  | CN[C@@H]1[C@@H](O)[C@@H](O[C@@H]2[C@@H](O)[C@H](O[C@H]3OC(CNCCO)=CC[C@H]3N)[C@@H](N)C[C@H]2NC(=O)C(O)C2CNC2)OC[C@]1(C)O (stereo partly shown) [Example 75, 6′-(2-Hydroxy-ethyl)-1-(2-(azetidin-3-yl)-2-hydroxy-acetyl)-sisomicin] | > 16 µg/mL | 1 to 16 µg/mL (≈ 1.65 to 26.5 µM) |  | 
2 |  | CN[C@@H]1[C@@H](O)[C@@H](O[C@@H]2[C@@H](O)[C@H](O[C@H]3OC(CNCC4(CN)CC4)=CC[C@H]3N)[C@@H](N)C[C@H]2NC(=O)C2(O)CCNC2)OC[C@]1(C)O (stereo partly shown) [Example 79] | > 16 µg/mL | 1 to 16 µg/mL (≈ 1.55 to 24.9 µM) |  | 
3 |  | CN[C@@H]1[C@@H](O)[C@@H](O[C@@H]2[C@@H](O)[C@H](O[C@H]3OC(CNCCCCCN)=CC[C@H]3N)[C@@H](N)C[C@H]2NC(=O)[C@@H](O)CCN)OC[C@]1(C)O [Example 44, 6′-(5-Amino-pentyl)-1-(4-amino-2(S)-hydroxy-butyryl)-sisomicin] | 1 to 16 µg/mL (≈ 1.58 to 25.2 µM) | < 1 µg/mL |  | 
4 |  | CN[C@@H]1[C@@H](O)[C@@H](O[C@@H]2[C@@H](O)[C@H](O[C@H]3OC(CN)=CC[C@H]3NCCCCN)[C@@H](N)C[C@H]2NC(=O)[C@@H](O)CCN)OC[C@]1(C)O [Example 102, 2′-(4-Amino-butyl)-1-(4-amino-2(S)-hydroxy-butyryl)-sisomicin] | 1 to 16 µg/mL (≈ 1.61 to 25.8 µM) | < 1 µg/mL |  | 
5 |  | CN[C@@H]1[C@@H](O)[C@@H](O[C@@H]2[C@@H](O)[C@H](O[C@H]3OC(CN)=CC[C@H]3NC(=O)C3CCCN3)[C@@H](N)C[C@H]2NC(=O)[C@@H](O)CCN)OC[C@]1(C)O (stereo partly shown) [Example 90] | 1 to 16 µg/mL (≈ 1.55 to 24.8 µM) | < 1 µg/mL |  | 
6 |  | CN[C@@H]1[C@@H](O)[C@@H](O[C@@H]2[C@@H](O)[C@H](O[C@H]3OC(CNCCCCN)=CC[C@H]3N)[C@@H](N)C[C@H]2NC(=O)[C@@H](O)CCN)OC[C@]1(C)O [Example 43, 6′-(4-Amino-butyl)-1-(4-amino-2(S)-hydroxy-butyryl)-sisomicin] | < 1 µg/mL | < 1 µg/mL |  | 
7 |  | CN[C@@H]1[C@@H](O)[C@@H](O[C@@H]2[C@@H](O)[C@H](O[C@H]3OC(CNC[C@H]4C[C@H](N)C4)=CC[C@H]3N)[C@@H](N)C[C@H]2NC(=O)C2(O)CNC2)OC[C@]1(C)O [Example 63] | 1 to 16 µg/mL (≈ 1.59 to 25.4 µM) | < 1 µg/mL |  | 
8 |  | CN[C@@H]1[C@@H](O)[C@@H](O[C@@H]2[C@@H](O)[C@H](O[C@H]3OC(CNCC(O)CO)=CC[C@H]3N)[C@@H](N)C[C@H]2NC(=O)[C@@H](O)CCN)OC[C@]1(C)O (stereo partly drawn) [Example 19, 6′-(2-Hydroxy-propanol)-1-(4-amino-2(S)-hydroxy-butyryl)-sisomicin] | 1 to 16 µg/mL (≈ 1.61 to 25.7 µM) | < 1 µg/mL |  | 
9 |  | CN[C@@H]1[C@@H](O)[C@@H](O[C@@H]2[C@@H](O)[C@H](O[C@H]3OC(CNC[C@H]4C[C@H](N)C4)=CC[C@H]3N)[C@@H](N)C[C@H]2NC(=O)[C@@H](O)CCN)OC[C@]1(C)O [Example 33, 6′-(Methyl-trans-3-amino-cyclobutyl)-1-(4-amino-2(S)-hydroxy-butyryl)-sisomicin] | 1 to 16 µg/mL (≈ 1.58 to 25.3 µM) | < 1 µg/mL |  | 
10 |  | CN[C@@H]1[C@@H](O)[C@@H](O[C@@H]2[C@@H](O)[C@H](O[C@H]3OC(CNC(=O)C(O)CN)=CC[C@H]3N)[C@@H](N)C[C@H]2NC(=O)[C@@H](O)CN)OC[C@]1(C)O (stereo partly drawn) [Example 20, 6′-(3-Amino-2-hydroxy-propionyl)-1-(3-amino-2(S)-hydroxy-propionyl)-sisomicin] | > 16 µg/mL | > 16 µg/mL |  | 
11 |  | CN[C@@H]1[C@@H](O)[C@@H](O[C@@H]2[C@@H](O)[C@H](O[C@H]3OC(CNCCCN)=CC[C@H]3N)[C@@H](N)C[C@H]2NC(=O)[C@H](O)CN)OC[C@]1(C)O [Example 11, 6′-(3-Amino-propyl)-1-(3-amino-2(R)-hydroxy-propionyl)-sisomicin] | 1 to 16 µg/mL (≈ 1.69 to 27 µM) | < 1 µg/mL |  | 
12 |  | CN[C@@H]1[C@@H](O)[C@@H](O[C@@H]2[C@@H](O)[C@H](O[C@H]3OC(CNCC(O)C(N)=O)=CC[C@H]3N)[C@@H](N)C[C@H]2NC(=O)[C@@H](O)CN)OC[C@]1(C)O (stereo partly drawn) [Example 21, 6′-(2-Hydroxy-3-propionamide)-1-(3-amino-2(S)-hydroxy-propionyl)-sisomicin] | 1 to 16 µg/mL (≈ 1.61 to 25.7 µM) | 1 to 16 µg/mL (≈ 1.61 to 25.7 µM) |  | 
13 |  | CN[C@@H]1[C@@H](O)[C@@H](O[C@@H]2[C@@H](O)[C@H](O[C@H]3OC(CNCCC4CNCCN4C)=CC[C@H]3N)[C@@H](N)C[C@H]2NC(=O)[C@@H](O)CCN)OC[C@]1(C)O (stereo partly shown) [Example 45] |  |  | 1 to 16 µg/mL (≈ 1.48 to 23.7 µM) | < 1 µg/mL
14 |  | CNCC(=O)N[C@@H]1CC=C(CN)O[C@@H]1O[C@H]1[C@H](O)[C@@H](O[C@H]2OC[C@](C)(O)[C@H](NC)[C@H]2O)[C@H](NC(=O)[C@@H](O)CCN)C[C@@H]1N [Example 86, 2′-(N-methyl-amino-acetyl)-1-(4-amino-2(S)-hydroxy-butyryl)-sisomicin] | 1 to 16 µg/mL (≈ 1.61 to 25.8 µM) | 1 to 16 µg/mL (≈ 1.61 to 25.8 µM) |  | 
15 |  | CN[C@@H]1[C@@H](O)[C@@H](O[C@@H]2[C@@H](O)[C@H](O[C@H]3OC(CNCC(O)CCN)=CC[C@H]3N)[C@@H](N)C[C@H]2NC(=O)C2(O)CCNC2)OC[C@]1(C)O (stereo partly shown) [Example 35] | 1 to 16 µg/mL (≈ 1.54 to 24.7 µM) | < 1 µg/mL |  | 
16 |  | CN[C@@H]1[C@@H](O)[C@@H](O[C@@H]2[C@@H](O)[C@H](O[C@H]3OC(CNC[C@H](O)C(=O)O)=CC[C@H]3N)[C@@H](N)C[C@H]2NC(=O)[C@@H](O)CCN)OC[C@]1(C)O [Example 50, 6′-(2(S)-Hydroxy-3-propanoic)-1-(4-amino-2(S)-hydroxy-butyryl)-sisomicin] | > 16 µg/mL | > 16 µg/mL |  | 
17 |  | CN[C@@H]1[C@@H](O)[C@@H](O[C@@H]2[C@@H](O)[C@H](O[C@H]3OC(CNCC4(O)CC(N)C4)=CC[C@H]3N)[C@@H](N)C[C@H]2NC(=O)C(O)C2CNC2)OC[C@]1(C)O (stereo partly shown) [Example 83, 6′-(Methyl-3-amino-1-hydroxy-cyclobutyl)-1-(2-(azetidin-3-yl)-2-hydroxy-acetyl)-sisomicin] | > 16 µg/mL | 1 to 16 µg/mL (≈ 1.52 to 24.3 µM) |  | 
18 |  | CN[C@@H]1[C@@H](O)[C@@H](O[C@@H]2[C@@H](O)[C@H](O[C@H]3OC(CNCCCO)=CC[C@H]3N)[C@@H](N)C[C@H]2NC(=O)[C@@H](O)CN)OC[C@]1(C)O [Example 54, 6′-(3-Propanol)-1-(3-amino-2(S)-hydroxy-propionyl)-sisomicin] | 1 to 16 µg/mL (≈ 1.69 to 27 µM) | < 1 µg/mL |  | 
19 |  | CN[C@@H]1[C@@H](O)[C@@H](O[C@@H]2[C@@H](O)[C@H](O[C@H]3OC(CNCCCN)=CC[C@H]3N)[C@@H](N)C[C@H]2NC(=O)CO)OC[C@]1(C)O [Example 24, 6′-(3-Amino-propyl)-1-(2-hydroxy-acetyl)-sisomicin] | 1 to 16 µg/mL (≈ 1.78 to 28.4 µM) | 1 to 16 µg/mL (≈ 1.78 to 28.4 µM) |  | 
20 |  | CN[C@@H]1[C@@H](O)[C@@H](O[C@@H]2[C@@H](O)[C@H](O[C@H]3OC(CNCCC(N)C4CC4)=CC[C@H]3N)[C@@H](N)C[C@H]2NC(=O)[C@@H](O)CN)OC[C@]1(C)O (stereo partly drawn) [Example 52, 6′-(3-Amino-3-cyclopropyl-propyl)-1-(3-amino-2(S)-hydroxy-propionyl)-sisomicin] | 1 to 16 µg/mL (≈ 1.58 to 25.3 µM) | < 1 µg/mL |  | 
21 |  | CN[C@@H]1[C@@H](O)[C@@H](O[C@@H]2[C@@H](O)[C@H](O[C@H]3OC(CN)=CC[C@H]3NC(=O)CN)[C@@H](N)C[C@H]2NC(=O)[C@@H](O)CCN)OC[C@]1(C)O [Example 87, 2′-(2-Amino-acetyl)-1-(4-amino-2(S)-hydroxy-butyryl)-sisomicin] | 1 to 16 µg/mL (≈ 1.65 to 26.4 µM) | 1 to 16 µg/mL (≈ 1.65 to 26.4 µM) |  | 
22 |  | CN[C@@H]1[C@@H](O)[C@@H](O[C@@H]2[C@@H](O)[C@H](O[C@H]3OC(CNCC4CC4)=CC[C@H]3N)[C@@H](N)C[C@H]2NC(=O)[C@H](O)CN)OC[C@]1(C)O [Example 7, 6′-Methyl-cyclopropyl-1-(3-amino-2(R)-hydroxy-propionyl)-sisomicin] | 1 to 16 µg/mL (≈ 1.7 to 27.2 µM) | < 1 µg/mL |  | 
23 |  | CN[C@@H]1[C@@H](O)[C@@H](O[C@@H]2[C@@H](O)[C@H](O[C@H]3OC(CNCC(O)CCN)=CC[C@H]3N)[C@@H](N)C[C@H]2NC(=O)C(O)C2CNC2)OC[C@]1(C)O (stereo partly shown) [Example 77, 6′-(2-Hydroxy-4-amino-butyl)-1-(2-(azetidin-3-yl)-2-hydroxy-acetyl)-sisomicin] | 1 to 16 µg/mL (≈ 1.54 to 24.7 µM) | 1 to 16 µg/mL (≈ 1.54 to 24.7 µM) |  | 
24 |  | CNCC1=CC[C@@H](NC(=N)N)[C@@H](O[C@H]2[C@H](O)[C@@H](O[C@H]3OC[C@](C)(O)[C@H](NC)[C@H]3O)[C@H](N)C[C@@H]2N)O1 [Example 108, 6′-Methyl-2′-guanidinium-sisomicin] | 1 to 16 µg/mL (≈ 1.99 to 31.8 µM) | < 1 µg/mL |  | 
25 | 1 | CN[C@@H]1[C@@H](O)[C@@H](O[C@@H]2[C@@H](O)[C@H](O[C@H]3OC(CNCC4CC4)=CC[C@H]3N)[C@@H](N)C[C@H]2NC(=O)[C@@H](O)CCN)OC[C@]1(C)O [Example 18, 6′-(Methyl-cyclopropyl)-1-(4-amino-2(S)-hydroxy-butyryl)-sisomicin] |  |  | 1 to 16 µg/mL (≈ 1.66 to 26.5 µM) | < 1 µg/mL
26 |  | CN[C@@H]1[C@@H](O)[C@@H](O[C@@H]2[C@@H](O)[C@H](O[C@H]3OC(CNCC(O)CN)=CC[C@H]3N)[C@@H](N)C[C@H]2NC(=O)C2(O)CCNC2)OC[C@]1(C)O (stereo partly shown) [Example 42, 6′-(2-Hydroxy-3-amino-propyl)-1-(3-hydroxy-pyrrolidin-3-yl-acetyl)-sisomicin] | 1 to 16 µg/mL (≈ 1.58 to 25.2 µM) | 1 to 16 µg/mL (≈ 1.58 to 25.2 µM) |  | 
27 |  | CN[C@@H]1[C@@H](O)[C@@H](O[C@@H]2[C@@H](O)[C@H](O[C@H]3OC(CN)=CC[C@H]3NCC(O)CO)[C@@H](N)C[C@H]2NC(=O)[C@@H](O)CCN)OC[C@]1(C)O (stereo partly drawn) [Example 100, 2′-(2-Hydroxy-propanol)-1-(4-amino-2(S)-hydroxy-butyryl)-sisomicin] | > 16 µg/mL | 1 to 16 µg/mL (≈ 1.61 to 25.7 µM) |  | 
